28 compounds from ChEMBL document CHEMBL1127116, “Synthesis and structure-activity relationships of a novel series of non-peptide AT2-selective angiotensin II receptor antagonists” (Bioorg Med Chem Lett, 1993) can be followed below.

The structures appear in SMILES notation.

Data set [1] concerns the target T1, Type-2 angiotensin II receptor (Rattus norvegicus, UniProt P35351).
T1 sequence (P35351 whole entry): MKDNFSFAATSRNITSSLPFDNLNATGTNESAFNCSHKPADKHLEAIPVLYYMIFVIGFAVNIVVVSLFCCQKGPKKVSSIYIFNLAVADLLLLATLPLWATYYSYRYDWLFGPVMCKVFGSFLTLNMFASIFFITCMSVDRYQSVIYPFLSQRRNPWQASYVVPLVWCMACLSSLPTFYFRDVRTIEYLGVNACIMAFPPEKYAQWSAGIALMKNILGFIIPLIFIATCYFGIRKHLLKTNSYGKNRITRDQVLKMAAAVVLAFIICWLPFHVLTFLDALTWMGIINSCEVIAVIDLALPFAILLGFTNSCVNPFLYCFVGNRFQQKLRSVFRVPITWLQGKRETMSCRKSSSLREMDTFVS
Kind of data set: Inhibition of Angiotensin II receptor, type 2 in rat midbrain using [125I]-Sar1,Ile8 angiotensin II binding assay.

Data set [2] deals with T2, Type-1 angiotensin II receptor (Oryctolagus cuniculus, UniProt P34976).
T2 sequence (P34976 whole entry): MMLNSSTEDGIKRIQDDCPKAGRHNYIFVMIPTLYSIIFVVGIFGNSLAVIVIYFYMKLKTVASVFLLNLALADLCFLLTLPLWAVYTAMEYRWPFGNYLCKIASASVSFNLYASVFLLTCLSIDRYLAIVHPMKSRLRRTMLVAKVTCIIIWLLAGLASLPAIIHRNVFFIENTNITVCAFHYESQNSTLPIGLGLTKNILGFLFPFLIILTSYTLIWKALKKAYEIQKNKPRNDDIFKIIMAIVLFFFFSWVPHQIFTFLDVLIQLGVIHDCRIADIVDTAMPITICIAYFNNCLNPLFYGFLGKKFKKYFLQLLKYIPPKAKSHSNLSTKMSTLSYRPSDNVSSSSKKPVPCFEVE
Kind of data set: Inhibition of Angiotensin II receptor, type 1 in rabbit aorta using [125I-Sar1,Ile8] angiotensin II binding assay. The data set is classed as tissue-based.

Data set [3] is described as follows: Half life in rats. It is filed as ADME, organism-based. The note with it: rat, in vivo.
Data set [4] in a line: Oral bioavailability in rat. The conditions noted are these: in vivo. The data set is classed as ADME, organism-based.
In data set [5] the target is T2, Type-1 angiotensin II receptor. Kind of data set: Inhibition of angiotensin Angiotensin II receptor, type 1 in rabbit aorta using [125I-Sar1,Ile8] angiotensin II binding assay. The data set is classed as tissue-based.
The target of data set [6] is T1, Type-2 angiotensin II receptor. Kind of data set: Compound was evaluated for inhibition of Angiotensin II receptor, type 2 in rat midbrain AT2 assay. The data set is classed as tissue-based.

The term IC50 denotes the concentration at which inhibition is half-maximal. As to `CC(C)N(C(=O)N1CCN(C(=O)N(c2ccccc2)c2ccccc2)[C@H](C(=O)O)C1)C(C)C`, the IC50 in data set [1] is 40 nM; in data set [2], above 10 µM.

For orientation: half-life means how long it takes for the measured level to halve. As a reminder, the bioavailability is the share of a dose that reaches the circulation, judged against a reference dose that is usually intravenous. Read a high bioavailability as good availability. For `O=C(O)[C@@H]1CN(C(=O)N(c2ccccc2)c2ccccc2)CCN1C(=O)N(c1ccccc1)c1ccccc1`, the half-life in data set [3] is above 360 min. Moreover, the bioavailability in data set [4] came out at 21%. In data set [2], this compound gave an IC50 above 100 µM.

With `CC1CN(C(=O)N(c2ccccc2)c2ccccc2)CCN1C(=O)N(c1ccccc1)c1ccccc1` (stereo unspecified), the figures for the IC50 in data set [1] and in data set [5] were 15 nM and above 100 µM, respectively.

For `CCCCCN(CCCCC)C(=O)N1CCN(C(=O)N(c2ccccc2)c2ccccc2)[C@H](C(=O)OC)C1`, the IC50 in data set [1] came out at 12 nM; in data set [2] it was 21 µM.

As for `CCCCCN(CCCCC)C(=O)N1CCN(C(=O)N(c2ccccc2)c2ccccc2)C[C@H]1C(=O)O`, the IC50 in data set [1] amounted to 23 nM; in data set [2], 25 µM.

Turning to `O=C(N1CCN(C(=O)N(c2ccccc2)c2ccccc2)CC1)N(c1ccccc1)c1ccccc1`, the IC50 is 37 nM in data set [1] and above 100 µM in data set [5].

Regarding `CCCCCN(CCCCC)C(=O)N1CCN(C(=O)C(c2ccccc2)c2ccccc2)C(C(=O)O)C1` (stereo unspecified), the IC50 was 1.1 nM in data set [1] and above 100 µM in data set [2].

Regarding `CCCCCN(CCCCC)C(=O)N1CCN(C(=O)N(c2ccccc2)c2cccc(C)c2)[C@H](C(=O)O)C1`, the IC50 came out at 0.7 nM in data set [1] and 10 µM in data set [5].

`COc1ccc(Cn2cnc3c2C[C@@H](C(=O)O)N(C(=O)C(c2ccccc2)c2ccccc2)C3)cc1C` registered an IC50 in data set [6] of 38 nM.

`CCCCCN(CCCCC)C(=O)N1CCN(C(=O)N(c2ccccc2)c2ccccc2)[C@H](CO)C1`: the results for the IC50 in data set [1] and in data set [2] were 30 nM and above 10 µM, respectively.

Turning to `CCCCCN(CCCCC)C(=O)N1CCN(C(=O)N(c2ccccc2)c2ccc(O)cc2)[C@H](C(=O)O)C1`, the IC50 in data set [1] stood at 230 nM; in data set [5] it was 10 µM.

For `CCCCCN(CCCCC)C(=O)N1CCN(C(=O)N(c2ccccc2)c2ccccc2)CC1`, the IC50 in data set [1] worked out at 70 nM; in data set [5], 12.5 µM.

With `CCCCCN(CCCCC)C(=O)N1CCN(C(=O)N(c2ccccc2)c2ccccc2)[C@@H](C(=O)O)C1`, the IC50 in data set [1] was 4.5 nM; in data set [2], above 10 µM.

On to `CCCCCN(CCCCC)C(=O)N1CCN(C(=O)N(c2ccccc2)c2cccc(Cl)c2)[C@H](C(=O)O)C1`, for which the values for the IC50 in data set [1] and in data set [5] were 0.4 nM and 5.1 µM, respectively.

With `CCCCCN(C(=O)N1CCN(C(=O)N(c2ccccc2)c2ccccc2)C[C@H]1C(=O)O)c1ccccc1`, the results for the IC50 in data set [1] and in data set [2] were 20 nM and 45 µM, respectively.

As for `CCCCCN(CCCCC)C(=O)N1CCN(C(=O)N(CCCCC)CCCCC)[C@H](C(=O)O)C1`, the IC50 in data set [1] was 82 nM; in data set [2], above 30 µM.

With `CCCCCN(CCCCC)C(=O)N1CCN(C(=O)N(c2ccccc2)c2ccc(Br)cc2)[C@H](C(=O)O)C1`, the IC50 in data set [1] was 2.7 nM; in data set [5] it was 5.4 µM.

On to `CCCCCN(CCCCC)C(=O)N1CCN(C(=O)N(c2ccccc2)c2ccc(I)cc2)[C@H](C(=O)O)C1`, for which the figures for the IC50 in data set [1] and in data set [5] were 7 nM and 8.5 µM, respectively.

On to `CCCCCN(CCCCC)C(=O)N1CCN(C(=O)N(c2ccccc2)c2cccc(OC)c2)[C@H](C(=O)O)C1`, for which the IC50 in data set [1] is 7.8 nM; in data set [5], above 10 µM.

Consider `CC1CN(C(=O)N(c2ccccc2)c2ccccc2)C(C)CN1C(=O)N(c1ccccc1)c1ccccc1` (stereo unspecified), for which the IC50 in data set [1] is 10 nM; in data set [5] it was above 100 µM.

With `CCCCCN(CCCCC)C(=O)N1CCN(C(=O)N(c2ccccc2)c2ccccc2)[C@H](CCO)C1`, the IC50 is 15 nM in data set [1] and above 10 µM in data set [5].

Turning to `CCCCCN(CCCCC)C(=O)N1CCN(C(=O)N(c2ccccc2)c2ccccc2)[C@H](C(=O)O)C1`, the figures for the IC50 in data set [1] and in data set [5] were 1.4 nM and 39 µM, respectively.

For the compound `CCCCCN(C)C(=O)N1CCN(C(=O)N(c2ccccc2)c2ccccc2)[C@H](C(=O)O)C1`, the IC50 is 15 nM in data set [1] and above 30 µM in data set [2].

For `CCCCCN(CCCCC)C(=O)N1CCN(C(=O)N(c2ccccc2)c2ccc(C(=O)OCC)cc2)[C@H](C(=O)O)C1`, the IC50 in data set [1] is 35 nM; in data set [5] it was above 10 µM.

Consider `CCCCCN(CCCCC)C(=O)N1CCN(C(=O)N(c2ccccc2)c2ccc(C(=O)O)cc2)[C@H](C(=O)O)C1`, for which the IC50 in data set [1] is 180 nM; in data set [5] it was 1.4 µM.

On to `CN(C(=O)N1CCN(C(=O)N(c2ccccc2)c2ccccc2)[C@H](C(=O)O)C1)c1ccccc1`, for which the IC50 in data set [1] is 170 nM; in data set [2] it was above 10 µM.

`CCCCCN(CCCCC)C(=O)N1CCN(C(=O)N(c2ccccc2)c2cccc(Br)c2)[C@H](C(=O)O)C1`: the IC50 was determined as 0.6 nM in data set [1] and 59 µM in data set [5].

Regarding `CCCCCN(CCCCC)C(=O)N1CCN(C(=O)N(c2ccccc2)c2ccccc2)C(C(=O)O)C1` (stereo unspecified), the results for the IC50 in data set [1] and in data set [2] were 1.7 nM and above 30 µM, respectively.
